Experimental data as given in US9193768B2, “Peptide for inhibition of binding between angiopoietin-2 and integrin and use thereof” (Samsung Electronics Co., Ltd., priority 2012, dated 2015).
“Also recorded” adds a separate entry of the source.

B1: Q362A: FLAG-Ang2 protein modified form where glutamine at amino acid 362 (SEQ ID No. 42) is substituted by alanine (protein)
chain: MWQIVFFTLSCDLVLAAAYNNFRKSMDSIGKKQYQVQHGSCSYTFLLPEMDNCRSSSSPYVSNAVQRDAPLEYDDSVQRLQVLENIMENNTQWLMKLENYIQDNMKKEMVEIQQNAVQNQTAVMIEIGTNLLNQTAEQTRKLTDVEAQVLNQTTRLELQLLEHSLSTNKLEKQILDQTSEINKLQDKNSFLEKKVLAMEDKHIIQLQSIKEEKDQLQVLVSKQNSIIEELEKKIVTATVNNSVLQKQQHDLMETVNNLLTMMSTSNSAKDPTVAKEEQISFRDCAEVFKSGHTTNGIYTLTFPNSTEEIKAYCDMEAGGGGWTIIQRREDGSVDFQRTWKEYKVGFGNPSGEYWLGNEFVSALTNQQRYVLKIHLKDWEGNEAYSLYEHFYLSSEELNYRIHLKGLTGTAGKISSISQPGNDFSTKDGDNDKCICKCSQMLTGGWWFDACGPSNLNGMYYPQRQNTNKFNGIKWYYWKGSGYSLKATTMMIRPADF
modifications: FLAG tag; Human Ang2 protein

Key:
[1] = system: U87MG cells; assay: Ang2 dependent adhesion of U87MG cells to Ang2-coated wells (CellTiter-Glo luminescence); assay type: cell-based, human; conditions: for Ang2 dependent cell adhesion inhibition activity: Example 5.2, peptide 100 μg/ml, among the 41 peptides; for inhibition activity against the binding of Ang2 and integrin: FIG. 10, U87MG adhesion to Ang2-coated wells, each peptide 100 μg/ml
Description: A 96-well plate was treated with 100 μl of a solution obtained by diluting Ang2 (R&D systems; 623-AN-025/CF) in a phosphate buffered saline (PBS) at a concentration of 10 μg/ml and incubated at 4° C. for 16 hours so that the wells were coated with Ang2. Thereafter, the Ang2-coated 96 wells were washed twice with PBS, treated with 200 μl of PBS containing 2% (v/v) bovine serum albumin (BSA) and then incubated at a room temperature for 2 hours for blocking. For a negative control, wells that were blocked without Ang2 coating (i.e., treated with BSA only) were prepared.
150 μl of the thus obtained cell suspension was added to each well of the 96-well plate that was prepared by performing coating and blocking procedures and incubating the plate in a CO2 incubator at 37° C. for 2 hours to induce cell adhesion.
Then, the plate was washed 4 times with serum-free media that was warmed to 37° C. to remove cells that were not adhered. The adhesion level of cells was quantified by adding 200 μl of CellTiter-Glo reagent (Promega) diluted in IMDM at 1:1 and then, measuring luminescence at EnVision® Multilabel Reader (PerkinElmer) after 10 min.
When Ang2-coated plates were treated with U87MG cells in accordance with the same methods as in Example 1.1, they were co-treated with one of the 41 peptides derived from Ang2 set forth in Table 2 to investigate the inhibition effects of the peptides against the adhesion of U87MG cells (see FIG. 8). Each peptide was treated at a concentration of 100 μg/ml and the number of U87MG cells treated with each peptide was about 4×10^4. The measurement of cell adhesion level was carried out in the same manner as Example 1.1. That is, after the addition of 200 μl of CellTiter-Glo reagent (Promega) diluted in IMDM at 1:1, their luminescence was measured at EnVision® Multilabel Reader (PerkinElmer) after 10 min.
When Ang2-coated plates were treated with U87MG cells in accordance with the same methods as in Example 1.1, they were co-treated with the C-body produced in Example 8 to investigate inhibition effects of C-body treatment on the adhesion of U87MG cells. The C-body was treated at a concentration of 20 μg/ml or 5 μg/ml, and the number of U87MG cells used was about 4×10^4 at each concentration.

[2] = target: T1, integrin (αVβ3) (Homo sapiens, UniProt P05106+P06756); assay: ELISA: binding of Ang2 protein (wild type or Q362A) to coated integrin; conditions: 5 μg/ml protein, FIG. 11
T1 construct: purchased R&D systems
Description: After an ELISA plate was coated with diluents obtained by diluting 3 kinds of integrin proteins (alpha5beta1 (α5β1; α5: NCBI Accession No. P08648, β1: NCBI Accession No. P05556), alphaVbeta1 (αVβ1; αV: NCBI Accession No. P06756, β1: NCBI Accession No. P05556), and alphaVbeta3 (αVβ3; αV: NCBI Accession No. P06756, β3: NCBI Accession No. P05106); R&D systems)) in PBS at a concentration of 5 μg/ml (18 hours, 4° C.), it was blocked with 1% (v/v) BSA at a room temperature for 2 hours. Thereafter, it was treated with Ang2 protein having FLAG sequences (DYKDDDDK, Sigma) tagged at its N-terminal (FLAG-Ang2, 0.1 ml of Ang2 protein solution diluted in PBS at a concentration of 10 μg/ml), incubated at a room temperature for 2 hours, and washed 5 times with PBS-t (0.1% (v/v) triton X-100 in PBS). Then, it was followed by the addition of anti-FLAG antibody (Sigma) conjugated with horse radish peroxidase (HRP) and washed 5 times with PBS-t. Binding between Ang2 and 3 kinds of the integrins was verified indirectly by measuring the quantity of anti-FLAG antibody remaining in the ELISA plate through color development reaction using TMB (3,3,5,5-tetramethylbenzidine) as a substrate of HRP. As a negative control, one plate which was blocked without Ang2 protein treatment (BSA treatment only) was used. […]

[3] = target: T2, Tie2 proteins (Q02763) (Homo sapiens, UniProt Q02763); assay: ELISA: binding of Ang2 protein (wild type or Q362A) to coated Tie2; conditions: Tie2 coated ELISA plates; FIG. 12
T2 construct: purchased R&D systems
Source text: The Y axis represents binding levels of each Ang2 protein to coated Tie2 or negative control BSA.

[4] = system: U87MG cells; assay: U87MG cancer cell invasion in matrigel-coated transwell chamber; assay type: cell-based, human; conditions: 5 μg/ml in lower chamber, 48 hours; FIG. 14
Description: U87MG cells which underwent serum starvation for two days were detached using a cell dissociation solution (EDTA solution) and diluted in 0% serum IMDM media, and then 7.5×10^4 of the cells were each treated in an upper chamber of a matrigel-coated transwell chamber (24 wells, BD bioscience). Lower chambers were filled with a diluent obtained by diluting wild type Ang2 protein or its Q362A modified form (see Example 6) in 2% serum IMDM media at a concentration of 5 μg/ml. After 48 hours passed, the cells were dyed using calcein-AM solution (4 μg/ml; BD Biosciences) and observed using a fluorescence microscope to measure the number of the cells which invaded toward the bottom.
The left part of FIG. 14 indicates the number of the cells that migrated to the lower chambers, and the right part illustrates the observation results of fluorescence treatment of the cells which migrated to the lower chambers, using a fluorescence microscope. In FIG. 14, ‘−’ indicates a negative control where the lower chamber was not treated with Ang2 protein or its modified form.

T1 sequence (P06756 31-889 limits assumed): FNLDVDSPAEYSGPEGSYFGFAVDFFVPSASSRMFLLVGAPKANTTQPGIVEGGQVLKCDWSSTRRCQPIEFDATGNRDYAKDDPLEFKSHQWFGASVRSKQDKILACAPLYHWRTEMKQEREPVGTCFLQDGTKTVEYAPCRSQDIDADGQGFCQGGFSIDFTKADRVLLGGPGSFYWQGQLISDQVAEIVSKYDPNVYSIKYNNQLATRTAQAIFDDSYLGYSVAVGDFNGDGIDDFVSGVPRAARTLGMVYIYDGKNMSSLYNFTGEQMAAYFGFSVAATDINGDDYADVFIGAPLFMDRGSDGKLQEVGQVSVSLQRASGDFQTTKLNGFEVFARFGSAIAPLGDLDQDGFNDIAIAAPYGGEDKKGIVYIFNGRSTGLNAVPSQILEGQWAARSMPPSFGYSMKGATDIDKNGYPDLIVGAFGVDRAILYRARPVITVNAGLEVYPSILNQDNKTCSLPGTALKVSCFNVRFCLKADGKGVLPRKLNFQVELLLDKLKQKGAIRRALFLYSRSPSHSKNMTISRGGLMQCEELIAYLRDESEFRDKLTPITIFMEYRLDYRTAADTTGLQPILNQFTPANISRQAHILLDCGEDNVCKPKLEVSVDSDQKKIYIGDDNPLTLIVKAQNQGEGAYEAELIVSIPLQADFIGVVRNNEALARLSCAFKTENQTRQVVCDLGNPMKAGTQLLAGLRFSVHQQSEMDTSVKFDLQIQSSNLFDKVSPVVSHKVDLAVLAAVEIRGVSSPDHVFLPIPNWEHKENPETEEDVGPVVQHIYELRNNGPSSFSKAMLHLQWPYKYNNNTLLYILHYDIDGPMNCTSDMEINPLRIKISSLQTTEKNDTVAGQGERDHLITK
T1 sequence (P06756 891-992 partner limits assumed): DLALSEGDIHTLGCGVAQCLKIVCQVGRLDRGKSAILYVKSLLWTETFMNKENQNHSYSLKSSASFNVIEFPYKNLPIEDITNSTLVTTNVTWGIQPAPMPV
T1 sequence (P05106 27-718 limits assumed): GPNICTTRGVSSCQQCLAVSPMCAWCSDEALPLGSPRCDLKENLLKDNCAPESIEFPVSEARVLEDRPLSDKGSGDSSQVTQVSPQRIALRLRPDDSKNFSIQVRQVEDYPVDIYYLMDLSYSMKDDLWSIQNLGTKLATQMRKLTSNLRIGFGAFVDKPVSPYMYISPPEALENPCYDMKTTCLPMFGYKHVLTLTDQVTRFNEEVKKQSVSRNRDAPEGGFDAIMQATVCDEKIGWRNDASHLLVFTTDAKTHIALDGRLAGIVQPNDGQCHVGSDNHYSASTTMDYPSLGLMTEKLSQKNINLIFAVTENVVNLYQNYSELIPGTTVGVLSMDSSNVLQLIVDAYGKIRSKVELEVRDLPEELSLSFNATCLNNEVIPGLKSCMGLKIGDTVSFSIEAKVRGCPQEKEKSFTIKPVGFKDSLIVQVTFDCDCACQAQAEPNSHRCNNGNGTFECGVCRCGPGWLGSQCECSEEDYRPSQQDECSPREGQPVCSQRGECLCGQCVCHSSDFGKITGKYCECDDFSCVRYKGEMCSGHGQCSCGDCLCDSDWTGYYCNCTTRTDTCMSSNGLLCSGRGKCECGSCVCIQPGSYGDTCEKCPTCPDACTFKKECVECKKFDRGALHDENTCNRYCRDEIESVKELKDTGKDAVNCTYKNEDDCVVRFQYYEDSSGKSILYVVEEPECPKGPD
T2 sequence (Q02763 23-1124): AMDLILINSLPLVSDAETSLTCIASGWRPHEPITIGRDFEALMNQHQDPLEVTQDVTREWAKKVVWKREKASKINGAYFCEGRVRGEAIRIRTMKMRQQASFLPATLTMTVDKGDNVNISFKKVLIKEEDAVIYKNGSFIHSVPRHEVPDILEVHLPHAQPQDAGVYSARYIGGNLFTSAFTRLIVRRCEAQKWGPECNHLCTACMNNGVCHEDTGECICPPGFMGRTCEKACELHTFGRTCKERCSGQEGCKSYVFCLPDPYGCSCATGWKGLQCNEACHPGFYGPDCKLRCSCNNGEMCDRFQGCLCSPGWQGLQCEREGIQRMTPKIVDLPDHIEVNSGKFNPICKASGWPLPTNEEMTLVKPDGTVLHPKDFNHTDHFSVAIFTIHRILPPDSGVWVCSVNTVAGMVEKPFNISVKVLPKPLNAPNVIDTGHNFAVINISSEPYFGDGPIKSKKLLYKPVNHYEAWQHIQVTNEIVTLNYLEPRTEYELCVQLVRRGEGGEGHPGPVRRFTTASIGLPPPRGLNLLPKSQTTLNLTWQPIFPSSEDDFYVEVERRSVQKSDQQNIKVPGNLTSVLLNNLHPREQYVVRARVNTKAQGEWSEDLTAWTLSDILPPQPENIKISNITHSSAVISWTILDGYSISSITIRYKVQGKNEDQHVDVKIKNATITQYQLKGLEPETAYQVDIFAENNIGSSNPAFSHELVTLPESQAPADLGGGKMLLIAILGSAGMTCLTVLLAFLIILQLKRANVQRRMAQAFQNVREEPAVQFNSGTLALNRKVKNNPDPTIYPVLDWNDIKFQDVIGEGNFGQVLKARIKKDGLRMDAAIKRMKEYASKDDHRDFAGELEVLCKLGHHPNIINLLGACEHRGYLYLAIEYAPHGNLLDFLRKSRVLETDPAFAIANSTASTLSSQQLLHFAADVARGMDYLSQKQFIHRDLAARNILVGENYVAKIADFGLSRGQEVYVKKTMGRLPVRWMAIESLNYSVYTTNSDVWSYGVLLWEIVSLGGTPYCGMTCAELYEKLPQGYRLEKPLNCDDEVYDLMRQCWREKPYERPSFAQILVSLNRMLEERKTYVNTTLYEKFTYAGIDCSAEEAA

| Molecule | inhibition activity against the binding of Ang2 and integrin [1] | further results |
| --- | --- | --- |
| EYWLG NEFVS QLTNQ (EYWLGNEFVSQLTNQ; Synthetic Peptide 15) [SEQ ID No. 15, 15 consecutive amino acids (352 to 366) of the Ang2 protein] | remarkably high inhibition activity | Ang2 dependent cell adhesion inhibition activity ([1]; listed as 15): best Ang2 dependent cell adhesion inhibition activity; Ang2 dependent cell adhesion inhibition activity ([1]; listed as Peptide 15): excellent Ang2-dependent cell adhesion inhibition activity |
| HTTNG IYTLT FPNST (HTTNGIYTLTFPNST; Synthetic Peptide 3) [SEQ ID No. 3] | remarkably high inhibition activity; also recorded: excellent integrin-Ang2 binding inhibition activity |  |
| IYTLT FPNST EEIKA (IYTLTFPNSTEEIKA; Synthetic Peptide 4) [SEQ ID No. 4] | remarkably high inhibition activity; also recorded: excellent integrin-Ang2 binding inhibition activity |  |
| LNYRI HLKGL TGTAG (LNYRIHLKGLTGTAG; Synthetic Peptide 24) [SEQ ID No. 24] | remarkably high inhibition activity |  |
| NEFVS QLTNQ QRYVL (NEFVSQLTNQQRYVL; Synthetic Peptide 16) [SEQ ID No. 16] | remarkably high inhibition activity |  |
| QLTNQ QRYVL KIHLK (QLTNQQRYVLKIHLK; Synthetic Peptide 17) [SEQ ID No. 17] | remarkably high inhibition activity |  |
| WKGSG YSLKA TTMMI (WKGSGYSLKATTMMI; Synthetic Peptide 40) [SEQ ID No. 40] | remarkably high inhibition activity |  |
| B1 |  | binding level to integrin relative to wild type Ang2 [2]: ≤ 50%; inhibition of Ang2-integrin binding by Q362A modification [2]: ≥ 50%; binding level to Tie2 compared with wild type Ang2 [3]: did not show any significant differences; induction level of cancer cell invasion compared with wild type Ang2 protein [4]: remarkably low induction level of cancer cell invasion (approximately half or so) |
